{
  "source": "patent US6225478A",
  "about": "“Iridoid derivatives and neovascularization inhibitors containing the same as active ingredient” (Tsumura & Co., priority 1999, dated 2001)",
  "data": [
    {"test_system": "human umbilical-vein endothelial cells (HUVEC)", "assay": "Tube Formation Assay (TFA) Test, HUVEC in collagen gel", "format": "cell-based", "conditions": "Homo sapiens, HUVEC, Tables 75-83; 0.32 mM sample solution; method as for Compounds 1 through 60; read-out: TFA Inhibition rate (%)", "method": "Furthermore, the sample liquids of compounds used in the CPA and CMA tests were prepared in the manner described below. Firstly, after weighing out each compound, a calculated amount of DMSO was added. After dissolving the compound in the DMSO, phosphate buffered physiological saline (PBS (-)) was added to bring the sample concentration to 1 mg/ml in PBS (-). The amount of DMSO used to dissolve the compounds was adjusted in advance to that the concentration of DMSO at that time was 5%. The resulting liquids were diluted 10-fold with 5% DMSO-PBS (-) solution to prepare sample solutions having a concentration of 0.1 mg/ml. In the TFA test, 320 μl of the prepared 1 mg/ml sample solutions were removed followed by addition of 680 μl of PBS (-) to prepare samples having a concentration of […]. Moreover, 100 μl of this solution was removed followed by addition of 900 μl of PBS (-) to dilute 10-fold and prepare samples having a concentration of 1 μg/ml. P [Cell Proliferation Assay (CPA) Test]\nTo begin with, 8 volumes of Type 1-A cell matrix (manufactured by Gibco Co.), 1 volume of 10×M119, and 1 volume of reconstituted buffer [200 mM HEPES, 0.05 N sodium hydroxide, 260 mM sodium bicarbonate] were slowly mixed under cooling with ice while avoiding bubbling to form a collagen gel. This collagen gel was distributed in a NUNC 24-well plate at 310 μl/well followed by allowing to stand undisturbed for 2 hours at 37° C. to solidify the gel.\nNext, the 7th subculture of HUVEC (1×10^5 cells/ml) obtained from the first generation in the same manner as above were disseminated at 500 μl/well. The cells were cultured for 2 hours at 37° C. to allow the cells to make contact with the collagen. After then removing the medium by aspiration, 50 μl of sample solution were added followed by addition of 310 μl/well of freshly prepared collagen gel and culturing for 1 hour and 10 minutes at 37° C. to solidify the double-layer gel.\n1 ml/well of M-199 medium containing 20% FCS, 30 ng /ml of b-FGF and 0.1 μM PMA were added to the wells followed by culturing for 20 hours at 37° C. in the presence of 5% CO2.\nMeasurement of the lengths of the formed tubes was performed using the public domain NIH Image with a computer.\nEvaluation was performed by calculating the inhibition rate (%) of tube formation according to the following formula.\nInhibition rate (%)=100-((formed tube length in presence of sample-formed tube length in presence of control (-))×100/(formed tube length in presence of control (+)-formed tube length in presence of control (-)))\n(§1) Samples were prepared using the present compounds of Compound No. I-60 through I-315. More specifically, 32 μl of a 20 mM sample solution dissolved in dimethylsulfoxide (DMSO) were removed and brought to a volume of 1 ml with phosphate-buffered saline (PBS) to prepare a sample solution having a concentration of 0.32 mM (containing 3.2% DMSO).\nThe testing method used for these compounds was the same as that used for the compounds of Compound No. 1 through 60 previously described.", "units": {"inhibition at 320 µM (stock)": "%"}, "values": [
      {"smiles": "CCOC(=O)CCCNC(=O)O[C@@H]1OC=C(C(=O)OC)[C@H]2CC=C(C)[C@@H]12", "note": "[I-135]", "inhibition at 320 µM (stock)": 4.7},
      {"smiles": "COC(=O)C1=CO[C@@H](OC(=O)N(C)C)[C@@H]2C(C)=CC[C@H]12", "note": "[I-136]", "inhibition at 320 µM (stock)": 15.6},
      {"smiles": "CONC(=O)O[C@@H]1OC=C(C(=O)OC)[C@H]2CC=C(C)[C@@H]12", "note": "[I-137]", "inhibition at 320 µM (stock)": 6.4},
      {"smiles": "COC(=O)C1=CO[C@@H](OC(=O)N(CCO)CCO)[C@@H]2C(C)=CC[C@H]12", "note": "[I-138]", "inhibition at 320 µM (stock)": 2.5},
      {"smiles": "COC(=O)C1=CO[C@@H](OC(=O)NCC2CC2)[C@@H]2C(C)=CC[C@H]12", "note": "[I-139]", "inhibition at 320 µM (stock)": 25.6},
      {"smiles": "COC(=O)C1=CO[C@@H](OC(=O)N2CC=C(c3ccccc3)CC2)[C@@H]2C(C)=CC[C@H]12", "note": "[I-140]", "inhibition at 320 µM (stock)": 5.2},
      {"smiles": "CCOc1ccccc1N1CCN(C(=O)O[C@@H]2OC=C(C(=O)OC)[C@H]3CC=C(C)[C@@H]23)CC1", "note": "[I-141]", "inhibition at 320 µM (stock)": 23.1},
      {"smiles": "COC(=O)C1=CO[C@@H](OC(=O)NCCCCl)[C@@H]2C(C)=CC[C@H]12", "note": "[I-142]", "inhibition at 320 µM (stock)": 3.7},
      {"smiles": "COC(=O)C1=CO[C@@H](OC(=O)NCc2ccc(Br)cc2)[C@@H]2C(C)=CC[C@H]12", "note": "[I-143]", "inhibition at 320 µM (stock)": 8.1},
      {"smiles": "COC(=O)CNC(=O)O[C@@H]1OC=C(C(=O)OC)[C@H]2CC=C(C)[C@@H]12", "note": "[I-144]", "inhibition at 320 µM (stock)": 7.5},
      {"smiles": "COC(=O)C1=CO[C@@H](OC(=O)NC2Cc3ccccc3C2)[C@@H]2C(C)=CC[C@H]12", "note": "[I-145]", "inhibition at 320 µM (stock)": 17.5},
      {"smiles": "COC(=O)C1=CO[C@@H](OC(=O)NCCc2ccc(O)c(OC)c2)[C@@H]2C(C)=CC[C@H]12", "note": "[I-146]", "inhibition at 320 µM (stock)": 7.8},
      {"smiles": "COC(=O)C1=CO[C@@H](OC(=O)NC(CO)CO)[C@@H]2C(C)=CC[C@H]12", "note": "[I-147]", "inhibition at 320 µM (stock)": 10.3},
      {"smiles": "COC(=O)C1=CO[C@@H](OC(=O)N2CCC2)[C@@H]2C(C)=CC[C@H]12", "note": "[I-148]", "inhibition at 320 µM (stock)": 5.1},
      {"smiles": "COC(=O)C1=CO[C@@H](OC(=O)N2CCN(c3ccccc3F)CC2)[C@@H]2C(C)=CC[C@H]12", "note": "[I-149]", "inhibition at 320 µM (stock)": 8.7},
      {"smiles": "COC(=O)C1=CO[C@@H](OC(=O)NCCSCc2ccccc2)[C@@H]2C(C)=CC[C@H]12", "note": "[I-150]", "inhibition at 320 µM (stock)": 32.3},
      {"smiles": "CCNC(=O)O[C@@H]1OC=C(C(=O)OC)[C@H]2CC=C(C)[C@@H]12", "note": "[I-151]", "inhibition at 320 µM (stock)": 38.1},
      {"smiles": "COC(=O)C1=CO[C@@H](OC(=O)NC(=O)CCl)[C@@H]2C(C)=CC[C@H]12", "note": "[I-152]", "inhibition at 320 µM (stock)": 51},
      {"smiles": "COC(=O)C1=CO[C@@H](OC(=O)NC(=O)c2ccccc2)[C@@H]2C(C)=CC[C@H]12", "note": "[I-153]", "inhibition at 320 µM (stock)": 19},
      {"smiles": "COC(=O)C1=CO[C@@H](OC(=O)NC(C)C)[C@@H]2C(C)=CC[C@H]12", "note": "[I-155]", "inhibition at 320 µM (stock)": 45.7}
    ]},
    {"test_system": "HUFEC", "assay": "Cell Migration Assay (CMA) Test, inhibitory rate with control (-) correction", "format": "cell-based, human", "conditions": "Homo sapiens, 24 h, 125 μl of 0.32 mM sample solution in 4.0 ml medium, 80% or more = remarkable", "method": "as §1\nAfter disseminating the 7th subculture of […] obtained from the first generation at 4 ml/well (3.0×10^5 cells/well) in a collagen-coated 6-well plate (NUNC), the cells were cultured for 48 hours at 37° C. in the presence of 5% CO2. The cells reached nearly a completely confluent state as a result of this culturing.\nA double-edged, disposable razor blade was divided into four sections, of which one of those sections was pinched between a pair of forceps. Using this piece of razor blade, the cell surface in the above confluent state was scraped off.\nAfter washing the surface of the wells from which the cells had been scraped off with medium, 4.0 ml of fresh M199 (2+) medium were placed in the wells. 4.0 ml of M199 medium were added to the control (-) well.\n125 μl of sample solution (0.32 mM, containing 3.2% dimethylsulfoxide) were added to the wells.\n125 μl of PBS solution containing 3.2% dimethylsulfoxide were added to the control wells instead of sample. The cells were cultured for 24 hours at 37° C. in the presence of 5% CO2. After discarding the culture liquid, the cells were fixed for 30 minutes with methanol. Next, after […] the cells for 4 hours with Giemsa stain, the plates were washed with tap water and air dried.\nMeasurement of cell migration was performed by microscopically counting the number of cells that had newly migrated within the range of a 1 mm×1 mm block. […] The total number of cells counted in blocks 1 through 5 were then totaled to determine the overall total number of cells. Four fields were counted for each well.\nEvaluation was performed determining the cell migration inhibitory rate (%) according to the following equation.\nInhibitory rate=100-((number of migrating cells to which sample was added-number of migrating cells of control (-))×100/(number of migrating cells of control (+)-number of migrating cells of control (-)))\nIf this inhibitory rate was 80% or more, cell migration was assessed as being remarkable.", "units": {"inhibition at 320 µM (stock)": "%"}, "values": [
      {"smiles": "CCOC(=O)CCCNC(=O)O[C@@H]1OC=C(C(=O)OC)[C@H]2CC=C(C)[C@@H]12", "note": "[I-135]", "inhibition at 320 µM (stock)": 23.4},
      {"smiles": "COC(=O)C1=CO[C@@H](OC(=O)N(C)C)[C@@H]2C(C)=CC[C@H]12", "note": "[I-136]", "inhibition at 320 µM (stock)": 8.3},
      {"smiles": "CONC(=O)O[C@@H]1OC=C(C(=O)OC)[C@H]2CC=C(C)[C@@H]12", "note": "[I-137]", "inhibition at 320 µM (stock)": 3.3},
      {"smiles": "COC(=O)C1=CO[C@@H](OC(=O)N(CCO)CCO)[C@@H]2C(C)=CC[C@H]12", "note": "[I-138]", "inhibition at 320 µM (stock)": 3.5},
      {"smiles": "COC(=O)C1=CO[C@@H](OC(=O)NCC2CC2)[C@@H]2C(C)=CC[C@H]12", "note": "[I-139]", "inhibition at 320 µM (stock)": 9.7},
      {"smiles": "COC(=O)C1=CO[C@@H](OC(=O)N2CC=C(c3ccccc3)CC2)[C@@H]2C(C)=CC[C@H]12", "note": "[I-140]", "inhibition at 320 µM (stock)": 3.3},
      {"smiles": "CCOc1ccccc1N1CCN(C(=O)O[C@@H]2OC=C(C(=O)OC)[C@H]3CC=C(C)[C@@H]23)CC1", "note": "[I-141]", "inhibition at 320 µM (stock)": 12.5},
      {"smiles": "COC(=O)C1=CO[C@@H](OC(=O)NCCCCl)[C@@H]2C(C)=CC[C@H]12", "note": "[I-142]", "inhibition at 320 µM (stock)": 9.8},
      {"smiles": "COC(=O)C1=CO[C@@H](OC(=O)NCc2ccc(Br)cc2)[C@@H]2C(C)=CC[C@H]12", "note": "[I-143]", "inhibition at 320 µM (stock)": 5.9},
      {"smiles": "COC(=O)CNC(=O)O[C@@H]1OC=C(C(=O)OC)[C@H]2CC=C(C)[C@@H]12", "note": "[I-144]", "inhibition at 320 µM (stock)": 31.2},
      {"smiles": "COC(=O)C1=CO[C@@H](OC(=O)NC2Cc3ccccc3C2)[C@@H]2C(C)=CC[C@H]12", "note": "[I-145]", "inhibition at 320 µM (stock)": 27.3},
      {"smiles": "COC(=O)C1=CO[C@@H](OC(=O)NCCc2ccc(O)c(OC)c2)[C@@H]2C(C)=CC[C@H]12", "note": "[I-146]", "inhibition at 320 µM (stock)": 17.2},
      {"smiles": "COC(=O)C1=CO[C@@H](OC(=O)NC(CO)CO)[C@@H]2C(C)=CC[C@H]12", "note": "[I-147]", "inhibition at 320 µM (stock)": 41},
      {"smiles": "COC(=O)C1=CO[C@@H](OC(=O)N2CCC2)[C@@H]2C(C)=CC[C@H]12", "note": "[I-148]", "inhibition at 320 µM (stock)": 3.4},
      {"smiles": "COC(=O)C1=CO[C@@H](OC(=O)N2CCN(c3ccccc3F)CC2)[C@@H]2C(C)=CC[C@H]12", "note": "[I-149]", "inhibition at 320 µM (stock)": 7.5},
      {"smiles": "COC(=O)C1=CO[C@@H](OC(=O)NCCSCc2ccccc2)[C@@H]2C(C)=CC[C@H]12", "note": "[I-150]", "inhibition at 320 µM (stock)": 5.4},
      {"smiles": "CCNC(=O)O[C@@H]1OC=C(C(=O)OC)[C@H]2CC=C(C)[C@@H]12", "note": "[I-151]", "inhibition at 320 µM (stock)": 35.9},
      {"smiles": "COC(=O)C1=CO[C@@H](OC(=O)NC(=O)CCl)[C@@H]2C(C)=CC[C@H]12", "note": "[I-152]", "inhibition at 320 µM (stock)": 33.7},
      {"smiles": "COC(=O)C1=CO[C@@H](OC(=O)NC(=O)c2ccccc2)[C@@H]2C(C)=CC[C@H]12", "note": "[I-153]", "inhibition at 320 µM (stock)": 22.3},
      {"smiles": "COC(=O)C1=CO[C@@H](OC(=O)NC(C)C)[C@@H]2C(C)=CC[C@H]12", "note": "[I-155]", "inhibition at 320 µM (stock)": 19.9}
    ]}
  ]
}
